What all share (type): cell-based
The target of test [1] is T1, CXCR4 (Homo sapiens, UniProt P61073). As to the kind of experiment: primary 1536 w β-arrestin recruitment assay (FRET, β-lactamase reporter) in U2OS cells overexpressing CXCR4. On the set-up: host or cells: U2OS. The procedure: In an effort to identify CXCR4 activators from the NIH Molecular Library Small Molecule Repository (MLSMR), a primary screening assay was developed to measure β-arrestin recruitment to the activated G-protein coupled receptor by Florescence Resonance Energy Transfer (FRET) in U2OS cells overexpressing the CXCR4 receptor engineered with a β-lactamase (bla) reporter system (Invitrogen cat #K1779). CXCR4-bla cells plated in 1536 w were stimulated in the presence of 10 uM compound concentration. […] Using this approach, 370,620 compounds from the NIH MLSMR were successfully screened and 303 hits were identified (hit rate=0.08%; Z′=0.83). […] These compounds were graded according to activity and structure resulting in 86 compounds that met criteria as potential CXCR4 agonists for further characterization.
T1 sequence (P61073 whole entry): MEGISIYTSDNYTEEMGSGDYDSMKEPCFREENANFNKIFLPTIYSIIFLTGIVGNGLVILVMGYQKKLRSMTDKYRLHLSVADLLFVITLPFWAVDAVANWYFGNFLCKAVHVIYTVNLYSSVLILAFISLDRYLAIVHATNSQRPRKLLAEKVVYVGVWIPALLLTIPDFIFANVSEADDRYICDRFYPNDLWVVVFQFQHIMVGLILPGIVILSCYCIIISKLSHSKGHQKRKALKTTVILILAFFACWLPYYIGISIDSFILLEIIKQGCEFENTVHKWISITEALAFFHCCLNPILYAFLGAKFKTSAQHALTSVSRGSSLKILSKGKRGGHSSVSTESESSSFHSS
Chemical stability, synthetic tractability, solubility and complete dose response and potency criteria led to the prioritization of the 5-aryl-2-cyclopropyl oxazole scaffold, represented by primary hit Compound 2 (Table 1). Early structure-activity relationship was established around the 5-aryl-2-cyclopropyl oxazole core with commercially available analogs with diverse substituents in the sulfonanilide ring of the scaffold. […] Keeping the 2-OMe substituent constant a small set of electron withdrawing and electron rich substituents at the 5-position of the anilide ring were screened (entries 16-19).

For the next test, the system named is miR-29a. As to the kind of experiment: miR-29a expression in murine fibroblasts. Particulars: 24 h; listed as UCUF-965. The procedure: Total RNA was extracted with TRIzol reagent (Invitrogen, Carlsbad, CA, USA) according to the manufacturer's established protocol. RNA was converted into cDNA using the SuperScript First-Strand Synthesis System (Invitrogen, Life Technologies). Primers and probes for mouse miR-15b and miR-29a were acquired from Applied Biosystems TaqMan gene expression assay (Applied Biosystems, Foster City, CA). Quantitative PCR was performed on a BIO-RAD CFX96 according to the manufacturer's instructions. Quantitative values of genes of interest are normalized based on U6. Samples (n=5 per group) were amplified in triplicate and results were averaged for each individual sample. The ΔΔCT method was used to calculate relative gene expression. Results are reported as mean±SD.
The expression of specific micro-RNA levels reported to be crucial in the wound-healing process were measured in order to validate and correlate the in vitro activity of UCUF-965 as a selective CXCR4 receptor modulator to micro-RNA expression. Murine diabetic and non-diabetic fibroblasts were cultured with increasing concentrations of the compound. The cells were incubated for 24 h and then total cellular RNA was isolated to examine the ability of the compound to correct the abnormal expression levels of miR-15b, miR-29a, and miR-146a. […]

Another test relates to miR-146a. As to the kind of experiment: miR-146a expression in murine fibroblasts. Particulars: 24 h; listed as UCUF-965. On the procedure:
The expression of specific micro-RNA levels reported to be crucial in the wound-healing process were measured in order to validate and correlate the in vitro activity of UCUF-965 as a selective CXCR4 receptor modulator to micro-RNA expression. Murine diabetic and non-diabetic fibroblasts were cultured with increasing concentrations of the compound. The cells were incubated for 24 h and then total cellular RNA was isolated to examine the ability of the compound to correct the abnormal expression levels of miR-15b, miR-29a, and miR-146a. The effect of UCUF-965 on expression of miR-15b, which inhibits angiogenesis and wound repair was examined.

Test [2] concerns the target T1, CXCR4. As to the kind of experiment: Adenylate cyclase (cAMP inhibition) assay, thiadiazine scaffold, CHO-CXCR4-cAMP cells. The arrangement: host or cells: CHO-K1. On the procedure:
Tango™ CXCR4-bla U2OS Cells (Invitrogen; K1779) were used for (β-arrestin recruitment assays and maintained as a monolayer culture in McCoy's 5a (Corning; 10-050-CV) supplemented with 10% dialyzed Fetal Bovine Serum (Gibco; 26400-044), 0.1 mM MEM Non-essential amino acids solution, 25 mM HEPES solution (Corning; 25-060-CI), 1 mM Sodium Pyruvate (Gibco; 11360-070), 200 μg/mL Zeocin selection reagent (Gibco; R25001), 50 μg/mL Hygromycin B (Gibco, 10687010), and 100 μg/mL Geneticin (G418 Sulfate) (Gibco, 10131035). U2OS cells were subcultured twice weekly by 0.05% Trypsin-EDTA treatment (Corning; 25-051-CI) and passaged to continue exponential growth phase for cell signaling assays. All cell cultures were maintained in cell culture incubators at 37° C. with 5% CO2. CHO-K1 CXCR4 cells (DiscoverX, Fremont, CA, USA) were used for cAMP inhibition assays and maintained as a monolayer culture in DMEM/F12 (Corning; 10-091-CV) supplemented with 10% Fetal Bovine Serum (Corning; 35-011-CV) and 100IU penicillin, […] streptomycin sulfate (Corning; 30-002-CI) and […] G418 (Gibco; 101310350. Cells were subculture 2 times weekly by o.o5% Trypsin-EDTA treatment (Corning; 25-051-CI) and passaged to continue exponential growth phase for cell signaling assays. All cell cultures were maintained in cell culture incubators at 37° C. with 5% CO2.CEM-CCRF cells (ATCC CCL-119) were used in both the migration and calcium flux assays and were cultured in growth media consisting of RPMI 1640 (Corning; 10-040-CV) supplemented with 10% Fetal Bovine Serum (Corning; 35-011-CV), and 100 IU penicillin, […] streptomycin sulfate (Corning; 30-002-CI). […] Cells were harvested for use in migration and calcium flux assays at 2.0×10^6 cells/mL to 2.5×10^6 cells/mL and resuspended in assay media to desired density for respective experiments.
Compounds and DMSO normalization to 0.5% were dispensed using the TECAN D300e digital dispenser into the wells of a 384-well white wall clear-bottom assay plate (Griener 781983). […] This cell suspension was dispensed at 20 μL per well into the assay plate and allowed to incubate overnight for approximately 18 hrs with compounds in cell culture incubator at 37° C. with 5% CO2. Following incubation, DMEM/F12 media was gently removed, then the Lance Ultra cAMP Kit (Perkin Elmer; TRF0263) was performed according to the supplier guidelines. […] Time-resolved fluorescence was measured on the BMG LABTECH CLARIOstar Plus (BMG LABTECH Inc., Cary, NC) using the Lance Ultra cAMP kit guidelines for excitation and emission. […]

In test [3] the target is T1, CXCR4. As to the kind of experiment: Calcium flux (Fluo-4) in CEM-CCRF cells. On the set-up: host or cells: CEM-CCRF. The settings on record: 10 μM; listed as UCUF-965. On the procedure: Fluo-4 Direct Calcium Assay Kit (Invitrogen; F10472) reagents were prepared according to the supplier guidelines at 2× concentration and allowed to equilibrate to room temperature in the dark. […] Following incubation, 25 μL of cell suspension loaded with Fluo-4 Direct Calcium reagent was dispensed into a 384-well black wall clear-bottom plate (Corning; 3764). […] Calcium flux responses were measured on the BMG LABTECH CLARIOstar Plus (BMG LABTECH Inc., Cary, NC) using the CLARIOstar Plus supplier excitation and emission settings for Fluo-4 (Calcium Saturated). Measurements were conducted using a bottom-read kinetic well-mode with measurements occurring at 0.5 sec intervals for 150 sec and injection occurring at 10.0 sec.
(A change in cytosolic calcium serves as a functional read-out for many receptors and channels.)

“Also recorded” adds a separate entry of the source. Like-named read-outs stand apart in the source and are kept apart here.

In general, EC50 refers to the concentration that produces a half-maximal response. Read a high EC50 as lower potency in that assay. As for `COc1ccc(OC)c(NS(=O)(=O)c2ccc(-c3cnc(C4CC4)o3)cc2)c1` [Oxazole Entry 19, 4-(2-Cyclopropyloxazol-5-yl)-N-(2,5-dimethoxyphenyl)benzenesulfonamide], it took 1.1 µM to reach a half-maximal effect at CXCR4 [1] (1536 w screening platform) (EC50). Besides, at CXCR4 [1] (1536 w, normalized to SDF-1α), the “CXCR4 b-arrestin Emax (%)” value was found to be 60%.

For orientation: Emax means the size of the effect at its maximum, as opposed to the concentration needed. `CCOc1ccccc1-c1nnc2n1N=C(c1ccc(N3CCCC3)cc1)CS2` [Thiadiazine Entry 23, 3-(2-ethoxyphenyl)-6-(4-(pyrrolidin-1-yl)phenyl)-7H-[1,2,4]triazolo[3,4-b][1,3,4]thiadiazine]: the “miR-29a expression” value in the test on miR-29a was “significant decrease of miR-29a levels; also recorded: suppression of miR15b and miR29a”. In the test with miR-146a, the “miR-146a expression” value is listed as “increase of miR-146a levels; also recorded: induction of miR146a”. Besides, at CXCR4 [2] (listed as UCUF-965), the “cAMP inhibition activity” value was “dose-dependent partial agonist response; also recorded: dose-dependent partial inhibition of forskolin-stimulated cAMP production; also recorded: did not inhibit the action of SDF-1α; also recorded: doubling the Emax”. Further, the “cAMP log EC50” value at CXCR4 [2] (log value, n=3) is on record as −7.3±0.2 M. Moreover, the Emax on CXCR4 [2] (read-out: cAMP maximal response (Emax) of SDF-1α potentiated by, pretreatment with 0.1 μM UCUF-965) came out at 110%; at CXCR4 [2] (read-out: cAMP maximal response (Emax) of SDF-1α potentiated by, pretreatment with 1 μM UCUF-965), 201%; on CXCR4 [2] (read-out: cAMP maximal response (Emax) of SDF-1α potentiated by, pretreatment with 5 μM UCUF-965), 209%. Besides, the “calcium flux activity” value at CXCR4 [3] is listed as “induce CXCR4-mediated calcium flux”.

Source of the values: patent US20250136617A1 (The Regents of the University of Colorado, A Body Corporate, priority 2022, published 2025).
